system: P. falciparum 3D7 growth, pLDH absorbance; test: P. falciparum 3D7 growth inhibition, dose response, strain 3D7 (AID 2305)

COc1ccc2c(NN=Cc3c(OC)ccc4ccccc34)cc(C)nc2c1 and COc1ccc2nc(C)cc(NN=Cc3ccccc3)c2c1 are within 1.5-fold of each other in IC50: 780 nM for the first, 1030 nM for the second.

CC(OC(=O)c1ccc(C(=O)NCC2CC2)cc1)C(C)(C)C (centres undefined) and CN(C)c1ccc(-c2csc(C(=O)NC3CCCCN(CCC(C)(C)C)C3)c2)cc1 (centres undefined) are within 1.5-fold of each other in IC50: 790 nM for the first, 1050 nM for the second.

COc1ccc2nccc([C@@H](O)CN3CCC(NC(=O)/C=C/c4cccc(NC(C)=O)c4)CC3)c2c1 and COc1ccc(NC(=O)/C=C/c2ccccc2Cl)cc1OCCN1CCC(N(C)C)CC1 are within 1.5-fold of each other in IC50: 960 nM for the first, 970 nM for the second.

First: CCOC(=O)CNCC(=O)c1ccc(OCc2ccccc2)cc1
Second: CCOC(=O)c1ccc(OCCCCCCOc2ccc(Br)cc2)cc1
The IC50 of the first is 4.9-fold lower: 160 nM for the first, 780 nM for the second. The first is the more potent here.

First: O=C1SC(=Cc2ccc(O)c(O)c2)C(=O)N1c1ccccc1
Second: Cc1cc2nc(-c3ccc(/C=C/C(=O)NCCc4ccccc4)cc3)[nH]c2cc1C
The IC50 of the first is 1.5-fold higher: 1200 nM for the first, 780 nM for the second.

CN1CCN(CCCN(Cc2cccc(-c3cccc(CNC4CCCC4)c3)c2)C(=O)CCC2CCCC2)CC1 and CC(C)c1ccc(NC(=O)c2cccc(CN3CCCN(CC4CCCCC4)CC3)c2)cc1 are within 1.5-fold of each other in IC50: 680 nM for the first, 710 nM for the second.

Going from COc1cc(NC(=O)/C=C/c2ccccc2OC(F)(F)F)cc(OCCN2CCN(CCN3CCOCC3)CC2)c1 to CO/C(=C\C=C\c1cc2cc(Cl)c(Cl)cc2[nH]1)C(=O)NCCCN1CCN(c2cccc(Cl)c2)CC1, the IC50 rises from 160 nM to 730 nM (4.6-fold).

First: CCCCCCCNCc1c(O)ccc2c(CNCCCCCCC)c(O)ccc12
Second: COc1cc2ccccc2c(OC)c1CNCCCCCCNCc1c(OC)cc2ccccc2c1OC
The IC50 of the first is 6.6-fold lower: 150 nM for the first, 990 nM for the second. The first is the more potent here.

Going from O=C(CCc1cnc[nH]1)Nc1cccc(-c2cccc(-c3nc4ccc(C(F)(F)F)cc4[nH]3)c2)c1 to CC(=O)Nc1ccc(C(=O)Nc2cccc(-c3cccc(-c4nc5ccc(C(F)(F)F)cc5[nH]4)c3)c2)cn1, the IC50 falls from 130 nM to 70 nM (1.9-fold).

Going from O=C(Nc1ccc(Cl)c(C(F)(F)F)c1)N[C@H]1CCN(CCCCCNC(=O)[C@@H]2C[C@H]2c2ccc(Cl)c(Cl)c2)C1 to O=C(C=Cc1ccc(Cl)c(Cl)c1)NCCCCCN1CCC(CCCNS(=O)(=O)c2cccc(C(F)(F)F)c2)CC1, the IC50 falls from 1080 nM to 480 nM (2.2-fold).

CC(=O)N(Cc1ccccc1-c1cccc(CNCc2ccc3c(c2)OCO3)c1)C1CCN(Cc2ccccc2)CC1 and COCCNCc1ccc(-c2ccc(CN(C(=O)Nc3ccccc3)C3CCN(Cc4ccccc4)CC3)cc2)cc1 are within 1.5-fold of each other in IC50: 1050 nM for the first, 750 nM for the second.

CC1CN(Cc2ccc(-c3ccc(-c4nc5ccc(F)cc5[nH]4)s3)cc2)CC(C)O1 (centres undefined) and CN(CCN)Cc1ccc(-c2ccc(-c3nc4ccc(F)cc4[nH]3)s2)cc1 are within 1.5-fold of each other in IC50: 880 nM for the first, 1070 nM for the second.

Going from Cc1ccc2c(c1)c(-c1ccccc1)c(-c1ccccc1)n2CC(O)CN1CCN(CC=Cc2ccccc2)CC1 (centres undefined) to O[C@@H](c1cccc(OCc2ccccc2)c1)[C@@H]1CN(CCc2ccccc2)CC[C@@]1(O)c1ccccc1, the IC50 falls from 780 nM to 220 nM (3.5-fold).

CC(C)(C)c1ccc2nccc(Nc3cccc(O)c3)c2c1 and COc1ccc2c(NN=Cc3cccnc3)ccnc2c1 are within 1.5-fold of each other in IC50: 970 nM for the first, 680 nM for the second.

CCCc1ccc(NC(=O)c2cccc(CN3CCCN(Cc4cccc(O)c4)CC3)c2)cc1 and O=C(Nc1cccc(CN2CCCN(Cc3ncc[nH]3)CC2)c1)c1ccc(Cl)c(Cl)c1 are within 1.5-fold of each other in IC50: 750 nM for the first, 800 nM for the second.

Going from c1ccc2[nH]c(CN(Cc3nc4ccccc4[nH]3)Cc3nc4ccccc4[nH]3)nc2c1 to N#Cc1cccc(C(O)CN(Cc2ccccc2)Cc2ccccc2)c1 (centres undefined), the IC50 rises from 670 nM to 1270 nM (1.9-fold). The first is the more potent here.

CC(O)C1CCCCN1C(=O)c1cccc(-c2cccc(-c3nc4ccc(F)cc4[nH]3)c2)c1 (centres undefined) and Cc1cccc2[nH]c(-c3ccc(-c4cccc(C(=O)N5CCCCC5C(C)O)c4)s3)nc12 (centres undefined) are within 1.5-fold of each other in IC50: 540 nM for the first, 640 nM for the second.

Cc1ccc(NC(=O)N2CCCN(CCCCCNC(=O)/C=C/c3ccc(Cl)c(Cl)c3)CC2)cc1 and CC(C)CCN1CCCN(Cc2ccc(C(=O)Nc3ccc(F)c(F)c3)cc2)CC1 are within 1.5-fold of each other in IC50: 760 nM for the first, 940 nM for the second.

Compared with O=S(=O)(NCCN1CCCC1)c1ccc(-c2cccc(CNCc3ccc(F)cc3)c2)cc1F, CS(=O)(=O)c1ccc(CCNCc2ccc(-c3ccc(CNC4CCN(Cc5ccccc5)CC4)cc3)nc2)cc1 is 3.2-fold lower in IC50: 790 nM for the first, 250 nM for the second.

Cc1cc(O)c(-c2cc(C(=O)Nc3cccnc3)[nH]n2)cc1C and O=C(Nc1cccnc1)c1cc(-c2cc(Cl)ccc2O)n[nH]1 are within 1.5-fold of each other in IC50: 770 nM for the first, 720 nM for the second.

First: CCC[C@@H]([C@@H](CC(C)C)C(=O)N[C@@H](CCCN=C(N)NS(C)(=O)=O)C(=O)Nc1nccs1)N(O)C=O
Second: CCNc1cc(C(=O)N[C@@H](Cc2ccoc2)[C@H](O)CNC(C)CCCC(C)C)cc(N2CCCCS2(=O)=O)c1 (some centres undefined)
The IC50 of the first is 1.5-fold higher: 940 nM for the first, 620 nM for the second. The second is the more potent here.

First: CC(C)Cc1c(O)nc(SCCN2CCOCC2)[nH]c1=O
Second: CCN(CCCN1CCCCC1)c1cc(C)nc(Nc2ccc(C(F)(F)F)cc2)n1
The IC50 of the first is 3.4-fold higher: 1260 nM for the first, 370 nM for the second.

Compared with CCC(C)c1ccc(NC(=O)c2ccc(S(=O)(=O)Nc3ccc(OC)c(N4CCN(CC5CC5)CC4)c3)cc2)cc1 (centres undefined), O=C(Nc1ccc(Cl)cc1)c1ccc(CN2CCCN(CC3CCCCC3)CC2)cc1 is 3.2-fold lower in IC50: 700 nM for the first, 220 nM for the second.

Going from O=C(NCc1ccc(Cl)c(Cl)c1)c1ccc(-c2nc3cc(F)c(F)cc3[nH]2)cc1 to NC(=O)C1CCN(Cc2cccc(-c3cccc(-c4nc5ccc(C(F)(F)F)cc5[nH]4)c3)c2)CC1, the IC50 falls from 1050 nM to 640 nM (1.6-fold). The second is the more potent here.

First: CN1CC=C(c2c[nH]c3ccc(C(=O)c4nccs4)cc23)CC1
Second: O=C(/C=C/c1ccc(Cl)c(Cl)c1)NC1CCC(N2CCC(c3c[nH]c4ccc(O)cc34)CC2)CC1 (centres undefined)
The IC50 of the first is 3.8-fold lower: 240 nM for the first, 920 nM for the second. The first is the more potent here.

Clc1cc(Cl)cc(Nc2ccnc(Nc3cc(Cl)cc(Cl)c3)n2)c1 and CN1CCN(c2cccc(Nc3nccc(NCC(O)c4ccccc4)n3)c2)CC1 (centres undefined) are within 1.5-fold of each other in IC50: 670 nM for the first, 720 nM for the second.

Cc1cc(N[C@@H](Cc2ccccc2)C(=O)NC2CCCC2)nc(Nc2ccccc2)n1 and COc1ccccc1CCNc1nc(C)cc(N[C@@H](Cc2ccccc2)C(=O)NCCc2ccccc2)n1 are within 1.5-fold of each other in IC50: 830 nM for the first, 1110 nM for the second.

CN(CCC1CCN(C(=O)/C=C/c2ccc(Cl)c(Cl)c2)CC1)C1CCC(c2c[nH]c3ccccc23)CC1 (centres undefined) and O=C(/C=C/c1c(Cl)cccc1Cl)NC1CCC(CN2CCC(Cc3cc4ccccc4[nH]3)CC2)CC1 (centres undefined) are within 1.5-fold of each other in IC50: 770 nM for the first, 970 nM for the second.

First: CCc1ccc(-n2cc(C(=O)c3cc(Br)ccc3O)cc(C#N)c2=O)cc1
Second: O=C(NCc1ccc(F)cc1)c1cc(Br)cc(N2CCN(c3ccncc3)CC2)c1
The IC50 of the first is 1.5-fold lower: 800 nM for the first, 1230 nM for the second.

Cc1ccc(-c2cc(C(=O)Nc3ccc(S(=O)(=O)N(C)Cc4ccccc4)cc3)[nH]n2)c(O)c1 and O=C(Nc1ccc(S(=O)(=O)N2CCCCC2)cc1)c1cc(-c2ccccc2O)n[nH]1 are the same in IC50: 850 nM for the first, 850 nM for the second.

First: Cc1ccc(NC(=O)N2CCC(n3c(-c4ccccc4)nc4cccnc43)CC2)cc1F
Second: O=C(Nc1ccc2ccccc2c1)c1ccc(CN2CCC(Cc3ccccc3)CC2)cc1
The IC50 of the first is 1.7-fold lower: 530 nM for the first, 880 nM for the second.

Going from N#Cc1ccc(-c2ccc(C(=O)NCC3CCN(CCN4CCC(c5ccc6c(c5OCC(N)=O)CCCC6)CC4)CC3)cc2)cc1 to CCOc1cc(CC)ccc1C1CCN(CCN2CCC(CNC(=O)c3ccc(-c4ccc(C#N)cc4)cc3)CC2)CC1, the IC50 rises from 440 nM to 710 nM (1.6-fold).

Going from Cc1nc(-c2nc(NCc3ccc4c(c3)OCO4)ncc2-c2ccsc2)sc1C to CC(C)(CN)c1nc(-c2ccc(Cl)c(O)c2)c(-c2ccnc(N)n2)[nH]1, the IC50 rises from 100 nM to 980 nM (9.8-fold). The first is the more potent here.

COc1ccc2c(NN=Cc3ccc([N+](=O)[O-])cc3)ccnc2c1 and Cc1cc(NN=Cc2ccccc2[N+](=O)[O-])c2ccc(F)cc2n1 are within 1.5-fold of each other in IC50: 340 nM for the first, 350 nM for the second.

O=C(Nc1ccc(C(=O)OCC2CCCCC2)cc1)N[C@@H](Cc1ccc(O)cc1)C(=O)NC1CCN(Cc2ccc(O)cc2)C1 (some centres undefined) and O=C(NC1CCCCC1)N(Cc1ccc(-c2ccc(CNC3CCCC3)cc2)cc1)C1CCN(Cc2ccccc2)CC1 are within 1.5-fold of each other in IC50: 870 nM for the first, 780 nM for the second.

Compared with Cc1cccc2[nH]c(-c3ccc(-c4ccc(CN5CCN(c6ccncc6)CC5)cc4)cc3)nc12, CN1CCCC(CN2CCN(Cc3cccc(-c4csc(-c5nc6ccccc6[nH]5)c4)c3)CC2)C1 (centres undefined) is 2.6-fold higher in IC50: 160 nM for the first, 410 nM for the second. The first is the more potent here.

COc1cc(-c2nc(-c3ccccc3)c(-c3ccccc3)[nH]2)cc(OC)c1O and COc1cccc2c(Nc3ccccc3C)nc(Nc3ccccc3C)nc12 are within 1.5-fold of each other in IC50: 770 nM for the first, 680 nM for the second.

Going from Cc1ccc2cc(NC(=O)CCCCCCCON3C(N)=NC(N)=NC34CCCCC4)ccc2n1 to CC(=O)Nc1ccc(OCCN(CC(C)(C)C)c2ccc(C#N)c(C(F)(F)F)c2)c(Cl)c1, the IC50 rises from 90 nM to 490 nM (5.4-fold).

Compared with CO/C(=C\C=C\c1cc2cc(Cl)c(Cl)cc2[nH]1)C(=O)NCCCN1CCC(c2ccccc2)CC1, COc1cc(F)c2ncc(Cl)c([C@H](O)CN3CCC(NCc4cc5c(cn4)OCCO5)CC3)c2c1 is 9.1-fold lower in IC50: 910 nM for the first, 100 nM for the second.

CC(C)(C)c1cc(C(=O)N2CCN(c3ccc(C(F)(F)F)cn3)CC2)n(Cc2ccc(F)cc2)n1 and CN1CCN(c2cc(-c3cccc(C(F)(F)F)c3)nc(-c3ccncc3)n2)CC1 are within 1.5-fold of each other in IC50: 980 nM for the first, 730 nM for the second.

COc1ccc(/C=C/c2ccc(-c3c(C)[nH]c(C)c(Cl)c3=O)cc2)cc1OC and Cc1[nH]c(C)c([N+](=O)[O-])c(=O)c1-c1ccc(Oc2ccc(OC(F)(F)F)cc2)cc1 are within 1.5-fold of each other in IC50: 280 nM for the first, 250 nM for the second.

COc1ccc2nccc([C@@H](O)CN3[C@@H]4CC[C@H]3CC(NCc3ccc5c(n3)NC(=O)CS5)C4)c2n1 (some centres undefined) and C[C@@H]1CN(c2ncc(-c3ccc(CNC4Cc5ccccc5C4)cc3)cn2)C[C@H](C)N1 are within 1.5-fold of each other in IC50: 930 nM for the first, 1160 nM for the second.

Going from N#Cc1ccc2c(c1)CN(C1CCC(NC(=O)/C=C/c3cc(C(F)(F)F)cc(C(F)(F)F)c3)CC1)CCC2 (centres undefined) to CN(C)C1CCN(CC#Cc2cc3ncnc(Nc4ccc(OCc5cccc(F)c5)c(Cl)c4)c3s2)CC1, the IC50 falls from 1390 nM to 890 nM (1.6-fold).

COc1ccc(-c2cccc(NC(=O)c3cccc(Cl)c3)c2)cc1CN(C)CCN(C)C and COc1ccc(CN(C)CCOc2ccc(NC(=O)c3cccc4c(=O)c5cc(SC)ccc5[nH]c34)cc2)cc1OC are within 1.5-fold of each other in IC50: 810 nM for the first, 880 nM for the second.

Cc1c(C(=O)Nc2cc(Sc3ccc(F)cc3)cc([N+](=O)[O-])c2)sc2ncn(Cc3ccccc3F)c(=O)c12 and Cc1nc2ccc3ccc(CNc4ccc5c(c4)CN([C@H](CCC(=O)O)C(=O)O)C5=O)cc3c2c(=O)[nH]1 are within 1.5-fold of each other in IC50: 800 nM for the first, 860 nM for the second.

First: C=CC[C@H](C[C@H](O)[C@H](Cc1ccccc1)NC(=O)c1ccc(-n2cccn2)cc1)C(=O)NC1CCCCC1
Second: O=S(=O)(ON=C1CCc2ccccc21)c1ccc(Cl)cc1
The IC50 of the first is 1.6-fold lower: 810 nM for the first, 1310 nM for the second.

CSC1=NC(=Nc2c(C)cccc2C)C2(CCC(C(C)(C)C)CC2)N1c1ccc(O)cc1 (centres undefined) and COc1cc(C(=O)N2CCOC(CCN3CCc4c(c5ccccc5n4C)C3)(c3ccc(Cl)c(Cl)c3)C2)cc(OC)c1OC (centres undefined) are within 1.5-fold of each other in IC50: 250 nM for the first, 360 nM for the second.
